# Results reported in patent publication US8129398B2 (priority 2008, dated 2012).
# Molecular target: T1, HIV-integrase (Human immunodeficiency virus type 1 group M subtype B, UniProt P12497)
# T1 construct: Recombinant integrase (0.26 ng) was incubated with the beads
# Test: HIV-Integrase Inhibition Activity (SPA bead integration assay with P33 labeled target DNA)
# Format: biochemical
# Conditions: recombinant integrase, class symbols; read-out: in vitro activity
# How it was run: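 Biotinylated substrate DNA on streptavidin SPA beads loaded with recombinant integrase (90 min, 37° C), washed, then inhibitor plus 0.1 fmol P33-labeled target DNA added. Reaction stopped with 10 mM EDTA; integration measured as CPM by scintillation, giving IC50 ranks.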
row,SMILES,IC50
1,"CN1CCN(c2cccc(CNC(=O)c3nc4n(c(=O)c3O)CC3CCC4(NC(=O)C(=O)N(C)C)CC3)c2)CC1 [Example 127, N′-(3-Hydroxy-2-((3-(4-methyl-1-piperazinyl)benzyl)carbamoyl)-4-oxo-6,7,8,9-tetrahydro-7,10-ethanopyrimido[1,2-a]azepin-10(4H)-yl)-N,N-dimethylethanediamide]",10 to 100 nM
2,"CN(C)C(=O)C(=O)NC12CCC(CC1)Cn1c2nc(C(=O)NCc2ccc(F)c(C3CC3)c2)c(O)c1=O [Example 128, N′-(2-((3-Cyclopropyl-4-fluorobenzyl)carbamoyl)-3-hydroxy-4-oxo-6,7,8,9-tetrahydro-7,10-ethanopyrimido[1,2-a]azepin-10(4H)-yl)-N,N-dimethylethanediamide]",< 10 nM
3,"CN(C)C(=O)C(=O)NC12CCC(CC1)Cn1c2nc(C(=O)NCc2ccccc2)c(O)c1=O [Example 129, N′-(2-(Benzylcarbamoyl)-3-hydroxy-4-oxo-6,7,8,9-tetrahydro-7,10-ethanopyrimido[1,2-a]azepin-10(4H)-yl)-N,N-dimethylethanediamide]",< 10 nM
4,"CN(C)C(=O)C(=O)NC12CCC(CC1)Cn1c2nc(C(=O)NCCCc2ccc(F)cc2)c(O)c1=O [Example 130, N′-(2-((3-(4-Fluorophenyl)propyl)carbamoyl)-3-hydroxy-4-oxo-6,7,8,9-tetrahydro-7,10-ethanopyrimido[1,2-a]azepin-10(4H)-yl)-N,N-dimethylethanediamide]",< 10 nM
5,"CN(C)C(=O)C(=O)NC12CCC(CC1)Cn1c2nc(C(=O)NCCCc2ccc(Cl)c(Cl)c2)c(O)c1=O [Example 131, N′-(2-((3-(3,4-Dichlorophenyl)propyl)carbamoyl)-3-hydroxy-4-oxo-6,7,8,9-tetrahydro-7,10-ethanopyrimido[1,2-a]azepin-10(4H)-yl)-N,N-dimethylethanediamide]",10 to 100 nM
6,"CN(C)C(=O)C(=O)NC12CCC(CC1)Cn1c2nc(C(=O)NCc2ccc(F)c(C#N)c2)c(O)c1=O [Example 132, N′-(2-((3-Cyano-4-fluorobenzyl)carbamoyl)-3-hydroxy-4-oxo-6,7,8,9-tetrahydro-7,10-ethanopyrimido[1,2-a]azepin-10(4H)-yl)-N,N-dimethylethanediamide]",< 10 nM
7,"COc1cc(CNC(=O)c2nc3n(c(=O)c2O)CC2CCC3(NC(=O)C(=O)N(C)C)CC2)ccc1F [Example 133, N′-(2-((4-Fluoro-3-methoxybenzyl)carbamoyl)-3-hydroxy-4-oxo-6,7,8,9-tetrahydro-7,10-ethanopyrimido[1,2-a]azepin-10(4H)-yl)-N,N-dimethylethanediamide]",< 10 nM
8,"COCCN(C)C(=O)C(=O)NC12CCC(CC1)Cn1c2nc(C(=O)NCc2ccc(F)c(C)c2)c(O)c1=O [Example 134, N′-(2-((4-Fluoro-3-methylbenzyl)carbamoyl)-3-hydroxy-4-oxo-6,7,8,9-tetrahydro-7,10-ethanopyrimido[1,2-a]azepin-10(4H)-yl)-N-(2-methoxyethyl)-N-methylethanediamide]",< 10 nM
9,"COCCN(C)C(=O)C(=O)NC12CCC(CC1)Cn1c2nc(C(=O)NCc2ccc(F)c(Cl)c2)c(O)c1=O [Example 135, N′-(2-((3-Chloro-4-fluorobenzyl)carbamoyl)-3-hydroxy-4-oxo-6,7,8,9-tetrahydro-7,11-ethanopyrimido[1,2-a]azepin-10(4H)-yl)-N-(2-methoxyethyl)-N-methylethanediamide]",< 10 nM
10,"Cn1cncc1CN1CCN(C(=O)C(=O)NC23CCC(CC2)Cn2c3nc(C(=O)NCc3ccc(F)cc3)c(O)c2=O)CC1 [Example 136, N-(4-Fluorobenzyl)-3-hydroxy-10-(((4-((1-methyl-1H-imidazol-5-yl)methyl)-1-piperazinyl)(oxo)acetyl)amino)-4-oxo-4,6,7,8,9,10-hexahydro-7,10-ethanopyrimido[1,2-a]azepine-2-carboxamide]",< 10 nM
11,"Cn1ccnc1CN1CCN(C(=O)C(=O)NC23CCC(CC2)Cn2c3nc(C(=O)NCc3ccc(F)cc3)c(O)c2=O)CC1 [Example 137, N-(4-Fluorobenzyl)-3-hydroxy-10-(((4-((1-methyl-1H-imidazol-2-yl)methyl)-1-piperazinyl)(oxo)acetyl)amino)-4-oxo-4,6,7,8,9,10-hexahydro-7,10-ethanopyrimido[1,2-a]azepine-2-carboxamide]",< 10 nM
12,"Cc1cc(C(=O)N2CCN(C(=O)C(=O)NC34CCC(CC3)Cn3c4nc(C(=O)NCc4ccc(F)cc4)c(O)c3=O)CC2)no1 [Example 139, N-(4-Fluorobenzyl)-3-hydroxy-10-(((4-((5-methyl-3-isoxazolyl)carbonyl)-1-piperazinyl)(oxo)acetyl)amino)-4-oxo-4,6,7,8,9,10-hexahydro-7,10-ethanopyrimido[1,2-a]azepine-2-carboxamide]",< 10 nM
13,"O=C(NC12CCC(CC1)Cn1c2nc(C(=O)NCc2ccc(F)cc2)c(O)c1=O)C(=O)N1CCN(C(=O)c2ccccn2)CC1 [Example 140, N-(4-Fluorobenzyl)-3-hydroxy-4-oxo-10-((oxo(4-(2-pyridinylcarbonyl)-1-piperazinyl)acetyl)amino)-4,6,7,8,9,10-hexahydro-7,10-ethanopyrimido[1,2-a]azepine-2-carboxamide]",< 10 nM
14,"COCC(=O)N1CCN(C(=O)C(=O)NC23CCC(CC2)Cn2c3nc(C(=O)NCc3ccc(F)cc3)c(O)c2=O)CC1 [Example 141, N-(4-Fluorobenzyl)-3-hydroxy-10-(((4-(methoxyacetyl)-1-piperazinyl)(oxo)acetyl)amino)-4-oxo-4,6,7,8,9,10-hexahydro-7,10-ethanopyrimido[1,2-a]azepine-2-carboxamide]",< 10 nM
15,"O=C(NC12CCC(CC1)Cn1c2nc(C(=O)NCc2ccc(F)cc2)c(O)c1=O)C(=O)N1CCN(C(=O)c2cccs2)CC1 [Example 142, N-(4-Fluorobenzyl)-3-hydroxy-4-oxo-10-((oxo(4-(2-thiophenylcarbonyl)-1-piperazinyl)acetyl)amino)-4,6,7,8,9,10-hexahydro-7,10-ethanopyrimido[1,2-a]azepine-2-carboxamide]",< 10 nM
16,"O=C(NC12CCC(CC1)Cn1c2nc(C(=O)NCc2ccc(F)cc2)c(O)c1=O)C(=O)N1CCN(C(=O)c2ccco2)CC1 [Example 143, N-(4-Fluorobenzyl)-10-(((4-(2-furanylcarbonyl)-1-piperazinyl)(oxo)acetyl)amino)-3-hydroxy-4-oxo-4,6,7,8,9,10-hexahydro-7,10-ethanopyrimido[1,2-a]azepine-2-carboxamide]",< 10 nM
17,"CS(=O)(=O)N1CCN(C(=O)N2CCN(C(=O)C(=O)NC34CCC(CC3)Cn3c4nc(C(=O)NCc4ccc(F)cc4)c(O)c3=O)CC2)C1=O [Example 144, N-(4-Fluorobenzyl)-3-hydroxy-10-(((4-((3-(methylsulfonyl)-2-oxo-1-imidazolidinyl)carbonyl)-1-piperazinyl)(oxo)acetyl)amino)-4-oxo-4,6,7,8,9,10-hexahydro-7,10-ethanopyrimido[1,2-a]azepine-2-carboxamide]",< 10 nM
18,"CN(C)S(=O)(=O)N1CCN(C(=O)C(=O)NC23CCC(CC2)Cn2c3nc(C(=O)NCc3ccc(F)cc3)c(O)c2=O)CC1 [Example 145, 10-(((4-(Dimethylsulfamoyl)-1-piperazinyl)(oxo)acetyl)amino)-N-(4-fluorobenzyl)-3-hydroxy-4-oxo-4,6,7,8,9,10-hexahydro-7,10-ethanopyrimido[1,2-a]azepine-2-carboxamide]",< 10 nM
19,"Cc1noc(C)c1S(=O)(=O)N1CCN(C(=O)C(=O)NC23CCC(CC2)Cn2c3nc(C(=O)NCc3ccc(F)cc3)c(O)c2=O)CC1 [Example 146, 10-(((4-((3,5-Dimethyl-4-isoxazolyl)sulfonyl)-1-piperazinyl)(oxo)acetyl)amino)-N-(4-fluorobenzyl)-3-hydroxy-4-oxo-4,6,7,8,9,10-hexahydro-7,10-ethanopyrimido[1,2-a]azepine-2-carboxamide]",< 10 nM
20,"COC(=O)c1sccc1S(=O)(=O)N1CCN(C(=O)C(=O)NC23CCC(CC2)Cn2c3nc(C(=O)NCc3ccc(F)cc3)c(O)c2=O)CC1 [Example 147, Methyl 3-((4-(((2-((4-fluorobenzyl)carbamoyl)-3-hydroxy-4-oxo-6,7,8,9-tetrahydro-7,10-ethanopyrimido[1,2-a]azepin-10(4H)-yl)amino) (oxo)acetyl)-1-piperazinyl)sulfonyl)-2-thiophenecarboxylate]",< 10 nM
21,"Cn1cnc(S(=O)(=O)N2CCN(C(=O)C(=O)NC34CCC(CC3)Cn3c4nc(C(=O)NCc4ccc(F)cc4)c(O)c3=O)CC2)c1 [Example 148, N-(4-Fluorobenzyl)-3-hydroxy-10-(((4-((1-methyl-1H-imidazol-4-yl)sulfonyl)-1-piperazinyl)(oxo)acetyl)amino)-4-oxo-4,6,7,8,9,10-hexahydro-7,10-ethanopyrimido[1,2-a]azepine-2-carboxamide]",< 10 nM
22,"O=C(NC12CCC(CC1)Cn1c2nc(C(=O)NCc2ccc(F)cc2)c(O)c1=O)C(=O)N1CCN(S(=O)(=O)c2ccc(S(=O)(=O)N3CCOCC3)cc2)CC1 [Example 149, N-(4-Fluorobenzyl)-3-hydroxy-10-(((4-((4-(4-morpholinylsulfonyl)phenyl)sulfonyl)-1-piperazinyl)(oxo)acetyl)amino)-4-oxo-4,6,7,8,9,10-hexahydro-7,10-ethanopyrimido[1,2-a]azepine-2-carboxamide]",< 10 nM
23,"CN(C)C12CCC(CC1)Cn1c2nc(C(=O)NCc2ccc(F)cc2)c(O)c1=O [Example 150, 10-(Dimethylamino)-N-(4-fluorobenzyl)-3-hydroxy-4-oxo-4,6,7,8,9,10-hexahydro-7,10-ethanopyrimido[1,2-a]azepine-2-carboxamide]",> 100 nM
24,"CN(C(=O)C(=O)N1CCCC1)C12CCC(CC1)Cn1c2nc(C(=O)NCc2ccc(F)cc2)c(O)c1=O [Example 153, N-(4-Fluorobenzyl)-3-hydroxy-10-(methyl(oxo(1-pyrrolidinyl)acetyl)amino)-4-oxo-4,6,7,8,9,10-hexahydro-7,10-ethanopyrimido[1,2-a]azepine-2-carboxamide]",< 10 nM
